Results published in ChEMBL document CHEMBL1201862, “PubChem BioAssay data set” (2004).
Activity calls are given as the source filed them.

Assays:
Streptokinase A = target: T1, Streptokinase A (Streptococcus pyogenes serotype M1, UniProt P10520); assay: S. pyogenes streptokinase expression inhibitors, potency, dose response, plasminogen activation absorbance, OD405 (AID 1914); format: functional, Streptococcus pyogenes M1 GAS;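 note: secreted streptokinase activity via plasminogen activation per viability signal from cell pellet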
T1 sequence (P10520 whole entry): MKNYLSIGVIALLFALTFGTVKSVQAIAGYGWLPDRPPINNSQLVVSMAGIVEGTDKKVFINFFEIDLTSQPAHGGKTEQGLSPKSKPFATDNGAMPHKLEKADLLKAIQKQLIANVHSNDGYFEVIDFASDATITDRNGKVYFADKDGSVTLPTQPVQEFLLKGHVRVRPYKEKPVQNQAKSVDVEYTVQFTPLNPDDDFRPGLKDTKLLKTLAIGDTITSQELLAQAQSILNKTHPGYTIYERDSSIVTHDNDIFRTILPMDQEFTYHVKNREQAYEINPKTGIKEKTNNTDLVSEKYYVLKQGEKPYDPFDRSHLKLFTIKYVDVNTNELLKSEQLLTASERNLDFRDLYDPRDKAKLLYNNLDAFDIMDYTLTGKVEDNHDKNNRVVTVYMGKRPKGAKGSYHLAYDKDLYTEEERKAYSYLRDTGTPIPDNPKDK

Streptococcus = assay: Group A Streptococcus viability loss, dose response, counter-screen for streptokinase expression inhibitor project, luminescence, BacTiterGlo (AID 1915); format: functional, organism-based;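 note: potency for reduction of bacterial viability or growth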
[1] = target: T2, Serine/threonine-protein phosphatase (Candida dubliniensis (strain CD36 / CBS 7987 / NCPF 3949 / NRRLY-17841) (Yeast), UniProt B9W6M3); assay: calcineurin pathway inhibitors in yeast reporter, dose response, S. cerevisiae, CDRE-lacZ, luminescence, secondary (AID 2388); format: functional, cell-based;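 note: yeast reporter cells carrying a calcineurin-responsive lacZ construct stimulated with calcium chloride; luminescent beta-galactosidase reporter signal in whole cells rather than isolated phosphatase activity; potency for inhibition where a drop in reporter signal means calcineurin blockade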
T2 sequence (B9W6M3 whole entry): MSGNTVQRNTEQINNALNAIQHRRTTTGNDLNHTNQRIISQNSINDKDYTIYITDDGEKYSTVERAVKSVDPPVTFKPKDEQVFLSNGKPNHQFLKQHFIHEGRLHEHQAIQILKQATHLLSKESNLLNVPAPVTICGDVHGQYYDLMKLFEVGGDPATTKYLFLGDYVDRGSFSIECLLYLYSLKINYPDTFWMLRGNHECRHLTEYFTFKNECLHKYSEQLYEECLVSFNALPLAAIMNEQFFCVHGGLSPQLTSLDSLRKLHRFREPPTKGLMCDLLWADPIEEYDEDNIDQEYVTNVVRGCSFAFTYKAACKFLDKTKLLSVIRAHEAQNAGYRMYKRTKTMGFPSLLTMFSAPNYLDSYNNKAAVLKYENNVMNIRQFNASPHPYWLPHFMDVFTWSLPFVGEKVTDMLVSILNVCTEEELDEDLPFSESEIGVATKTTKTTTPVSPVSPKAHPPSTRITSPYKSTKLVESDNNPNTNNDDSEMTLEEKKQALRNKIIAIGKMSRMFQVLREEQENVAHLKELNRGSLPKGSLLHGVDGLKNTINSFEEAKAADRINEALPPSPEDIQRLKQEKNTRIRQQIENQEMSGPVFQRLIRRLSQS

Vero = Vero cell cytotoxicity, cytotoxicity control for flavivirus capping enzyme inhibitors (AID 588742); format: functional; conditions: Chlorocebus sabaeus
[2] = target: ATP-dependent molecular chaperone HSP82 (Candida albicans (strain WO-1) (Yeast), UniProt C4YTQ8); assay: loss of DOC-induced GRE-beta-galactosidase reporter signal, dose response, Hsp90 inhibitor project, S. cerevisiae, luminescence (AID 2400); format: functional, cell-based;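 note: beta-galactosidase luminescence from glucocorticoid response element reporter as proxy for Hsp90 function; inhibitor potency where signal loss means Hsp90 inhibition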
[3] = NIH-3T3 fibroblast cytotoxicity, dose response, cytotoxicity control, cell-based, fluorescence, Alamar Blue, secondary assay (AID 2327); format: functional;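 note: NIH-3T3 mouse fibroblasts cultured with fluconazole at 8 µg/mL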
[4] = target: Heat shock protein HSP 90-alpha (Homo sapiens, UniProt P07900); format: functional, organism-based
[5] = test system: Streptococcus sp. 'group A'; assay: growth inhibition of control SK(-) GAS strain, dose response, counter-screen for streptokinase expression inhibitor project, luminescence, kanamycin, BacTiterGlo, confirmation (AID 1900); format: functional, organism-based
[6] = C. albicans growth with fluconazole, confirmation, fluorescence, retest (AID 2467); format: functional, cell-based
[7] = target: T3, High affinity choline transporter 1 (Homo sapiens, UniProt Q9GZV3); assay: CHT inhibitors, dose response, cell-based, 5-point CRC, membrane potential dye (AID 504840); format: functional
T3 sequence (Q9GZV3 whole entry): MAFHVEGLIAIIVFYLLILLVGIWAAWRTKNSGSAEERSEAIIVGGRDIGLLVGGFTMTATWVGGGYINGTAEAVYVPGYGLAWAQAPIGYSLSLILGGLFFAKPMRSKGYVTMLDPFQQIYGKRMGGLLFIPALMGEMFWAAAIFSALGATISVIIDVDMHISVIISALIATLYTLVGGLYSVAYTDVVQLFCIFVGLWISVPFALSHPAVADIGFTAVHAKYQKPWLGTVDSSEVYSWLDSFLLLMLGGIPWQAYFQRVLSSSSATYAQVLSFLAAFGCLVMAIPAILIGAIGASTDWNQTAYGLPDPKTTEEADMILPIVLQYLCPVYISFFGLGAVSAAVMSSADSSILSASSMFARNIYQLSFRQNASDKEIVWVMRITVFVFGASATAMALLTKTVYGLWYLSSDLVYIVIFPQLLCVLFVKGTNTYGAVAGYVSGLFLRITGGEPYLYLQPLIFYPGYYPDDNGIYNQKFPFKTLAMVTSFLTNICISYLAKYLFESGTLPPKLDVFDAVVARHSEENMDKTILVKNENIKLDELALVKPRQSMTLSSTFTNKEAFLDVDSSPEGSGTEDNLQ

[8] = Luminescence Cell-Based Dose Retest to Confirm Inhibitors of Cancer Stem Cells. [Related pubchem assays (depositor defined):AID2717, AID2721]; format: functional; conditions: Homo sapiens
[9] = target: T4, Nucleotide-binding oligomerization domain-containing protein 1 (Homo sapiens, UniProt Q9Y239); assay: NOD1 signaling inhibitors, SAR follow-up, revised (AID 2333); format: functional
T4 sequence (Q9Y239 whole entry): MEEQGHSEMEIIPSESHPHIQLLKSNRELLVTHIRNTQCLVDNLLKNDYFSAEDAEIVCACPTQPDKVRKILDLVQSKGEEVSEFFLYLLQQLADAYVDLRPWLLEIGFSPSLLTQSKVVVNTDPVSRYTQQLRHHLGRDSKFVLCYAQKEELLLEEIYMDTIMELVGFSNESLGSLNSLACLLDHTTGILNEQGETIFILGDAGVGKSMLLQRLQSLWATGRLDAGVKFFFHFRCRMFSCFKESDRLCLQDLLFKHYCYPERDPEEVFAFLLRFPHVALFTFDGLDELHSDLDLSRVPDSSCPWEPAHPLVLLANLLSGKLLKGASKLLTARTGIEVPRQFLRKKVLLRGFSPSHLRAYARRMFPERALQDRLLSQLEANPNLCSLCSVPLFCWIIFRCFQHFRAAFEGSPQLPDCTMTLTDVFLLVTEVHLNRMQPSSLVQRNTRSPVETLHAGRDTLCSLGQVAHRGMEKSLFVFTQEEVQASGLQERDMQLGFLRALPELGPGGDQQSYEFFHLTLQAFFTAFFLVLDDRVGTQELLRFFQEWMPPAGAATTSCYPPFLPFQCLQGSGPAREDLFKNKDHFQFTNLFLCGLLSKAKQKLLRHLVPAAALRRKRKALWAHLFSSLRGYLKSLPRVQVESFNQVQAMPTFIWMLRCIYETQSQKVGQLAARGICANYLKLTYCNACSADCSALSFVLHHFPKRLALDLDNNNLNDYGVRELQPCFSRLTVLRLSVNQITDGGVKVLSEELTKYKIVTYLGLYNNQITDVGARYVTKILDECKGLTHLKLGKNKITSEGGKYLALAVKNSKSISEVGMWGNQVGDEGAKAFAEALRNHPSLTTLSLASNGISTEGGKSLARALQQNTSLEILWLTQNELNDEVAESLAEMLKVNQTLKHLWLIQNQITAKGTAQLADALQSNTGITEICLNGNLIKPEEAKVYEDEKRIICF

Tumor necrosis factor = Tumor necrosis factor (Homo sapiens, UniProt P01375); assay: TNFa-triggered NF-kB activation inhibitors, SAR follow-up, cell-based, revised (AID 2337); format: functional
HEK293 = assay: cells; conditions: Homo sapiens;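 note: cells exposed to compound for 14 hours overnight before viability readout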
[10] = target: T5, DNA repair protein RAD52 homolog (Homo sapiens, UniProt P43351); format: functional, biochemical
T5 sequence (P43351 whole entry): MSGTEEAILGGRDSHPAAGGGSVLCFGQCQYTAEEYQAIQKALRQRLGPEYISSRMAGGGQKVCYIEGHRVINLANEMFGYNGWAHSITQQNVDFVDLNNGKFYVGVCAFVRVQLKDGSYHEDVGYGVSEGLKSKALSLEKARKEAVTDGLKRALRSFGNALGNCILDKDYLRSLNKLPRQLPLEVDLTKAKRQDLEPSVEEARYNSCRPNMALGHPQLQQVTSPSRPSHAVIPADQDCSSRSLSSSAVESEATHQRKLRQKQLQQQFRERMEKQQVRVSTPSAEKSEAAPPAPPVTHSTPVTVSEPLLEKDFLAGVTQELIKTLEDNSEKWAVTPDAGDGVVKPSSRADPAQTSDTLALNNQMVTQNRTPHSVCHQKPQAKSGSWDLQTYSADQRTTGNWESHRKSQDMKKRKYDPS

Sequence of ATP-dependent molecular chaperone HSP82 (C4YTQ8 whole entry): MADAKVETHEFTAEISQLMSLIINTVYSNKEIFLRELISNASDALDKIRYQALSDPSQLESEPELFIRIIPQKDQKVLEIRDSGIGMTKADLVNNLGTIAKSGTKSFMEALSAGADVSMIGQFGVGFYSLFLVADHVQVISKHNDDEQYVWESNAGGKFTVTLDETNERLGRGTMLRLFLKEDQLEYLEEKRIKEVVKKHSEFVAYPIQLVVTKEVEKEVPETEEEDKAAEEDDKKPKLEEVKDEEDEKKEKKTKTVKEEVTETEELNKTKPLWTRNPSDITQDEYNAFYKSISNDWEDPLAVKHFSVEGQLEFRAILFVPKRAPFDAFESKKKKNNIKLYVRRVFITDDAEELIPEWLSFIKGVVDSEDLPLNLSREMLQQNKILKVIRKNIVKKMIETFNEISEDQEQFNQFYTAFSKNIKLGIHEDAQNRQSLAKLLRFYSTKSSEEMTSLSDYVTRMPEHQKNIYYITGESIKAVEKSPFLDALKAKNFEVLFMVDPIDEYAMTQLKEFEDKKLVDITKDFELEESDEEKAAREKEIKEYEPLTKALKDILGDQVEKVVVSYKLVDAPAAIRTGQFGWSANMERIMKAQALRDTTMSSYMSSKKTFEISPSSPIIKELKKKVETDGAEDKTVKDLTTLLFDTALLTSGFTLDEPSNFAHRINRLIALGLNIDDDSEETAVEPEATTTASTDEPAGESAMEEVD
Sequence of Tumor necrosis factor (P01375 whole entry): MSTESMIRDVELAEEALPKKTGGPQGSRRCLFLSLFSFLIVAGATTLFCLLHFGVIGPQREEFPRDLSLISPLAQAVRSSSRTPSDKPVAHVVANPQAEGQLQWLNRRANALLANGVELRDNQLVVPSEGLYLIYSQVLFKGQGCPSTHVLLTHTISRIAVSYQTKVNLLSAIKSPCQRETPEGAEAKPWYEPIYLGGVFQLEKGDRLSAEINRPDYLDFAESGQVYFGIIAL

In the case of [O-][n+]1cccc2c(Br)cc(Br)c(O)c21, the EC50 (Streptokinase A) is reported as > 150 µM (not active), the EC50 (Streptococcus) is reported as 18.7 µM (active) and the EC50 [1] is reported as > 180 µM (inactive). The CC50 (Vero) was > 40 µM (active), the EC50 [2] was > 160 µM (inactive) and the EC50 [3] was > 150 µM (inconclusive). For the same molecule, the AC50 [4] was 3.15 µM (active), the EC50 [5] was 0.865 µM (active) and the EC50 [6] was 0.651 µM (active).

With O=C(NNC1=C(C(=O)C(F)(F)F)CCC1)c1cccc(Cl)c1 the EC50 (Streptokinase A) was > 150 µM (not active), the EC50 (Streptococcus) was 2.77 µM (active) and the EC50 [1] was > 180 µM (inactive). The IC50 [7] was 11 µM (active), the AC50 [8] was 1.95 µM (active) and the EC50 [2] was 24.6 µM (active). For the same molecule, the EC50 [3] was > 150 µM (inactive), the EC50 [5] was 1.23 µM (active) and the EC50 [6] was 0.741 µM (active).

With COc1ccc(NC(=O)c2ccc(CN3CCc4ccccc43)cc2)cc1 the IC50 [9] was > 20 µM (inactive), the IC50 (Tumor necrosis factor) was > 20 µM (inactive) and the IC50 (HEK293) was > 20 µM (inactive).

In the case of CC(C)N1CCc2c(sc(NC(=O)c3nc4ccccc4s3)c2C(N)=O)C1, the EC50 [1] is reported as > 180 µM (inactive), the EC50 [2] is reported as 51.8 µM (active) and the EC50 [3] is reported as > 150 µM (inactive). For the same molecule, the EC50 [6] was 0.491 µM (active) and the AC50 [10] was 9.55 µM (active).
